In patent EP3246028A1, “QUINOLINE COMPOUNDS FOR INCREASING INSULINE RELEASE” (Max-Planck-Gesellschaft zur Förderung der Wissenschaften …, priority 2016, dated 2017):
Entries after “also recorded” stand apart in the source; their conditions may differ.

Assays:
Format in all cases: cell-based
[1] = test system: RIN-5AH insulinoma beta cell line; experiment: Insulin secretion (insulin ELISA of supernatants); details: for insulin secretion relative to a DMSO control, compared to previously reported quinoline compounds: 5 µM compound 12 vs 50 µM quinidine or chloroquine, 10 µM levofloxacin or gatifloxacin, Figure 1
Procedure: Culture medium and supplements were purchased from Life Technologies. The RIN-5AH insulinoma beta cell line was cultured in RPMI 1640 supplemented with 10% FBS, 2 mM glutamine. All culture media contained 1x penicillin-streptomycin. Cells were grown on 15 cm culture plates at 37°C under 5% CO2 in high humidity atmosphere.
To determine the insulin level from the supernatants insulin ELISA kits from Millipore or Mercodia were used. RIN-5AH cells were seeded in 96 well or 12 well plates and grown overnight. RIN-5AH cells never reached more than 80% confluency before treatment. Cells were washed once with PBS before treatment. Cells were treated in medium for 2 hours and with 5 µM of insulin secretagogue according to the present invention, if not otherwise indicated. After treatment 100ul of supernatant was taken. Samples were assayed immediately or stored at -20°C until measurement. Dilutions were made if necessary and ELISA was subsequently performed according to the user's manual. Insulin secretion was normalized to cell number by MTT assay or to total protein amount by BCA assay (ThermoFisher Scientific, 23225). Plates were read on BioTrek Elx800 absorbance reader at 450 nm.
RIN-5AH beta cells were treated with 5 µM compound 12 or 50 µM quinidine or chloroquine according to the above described protocol (Example 1).

[2] = test system: RIN-5AH cells; experiment: Calcium influx by FACS analysis (Fluo-4 AM fluorescence); details: extracellular Ca2+ present, compound 12 at 5 µM
Procedure: Calcium influx was measured by FACS analysis, similar to protocols previously described (Brewis, I. A., journal of andrology 21, 238-249, doi:10.1002/j.1939-4640.2000.tb02101.x (2000); Vines, A., Cytometry Part A 77A, 1091-1097, doi:10.1002/cyto.a.20974 (2010); Schepers, E., Journal of Immunological Methods 348, 74-82, doi:http://dx.doi.org/10.1016/j.jim.2009.07.002 (2009)).
RIN-5AH cells (30,000 cells per well) were plated in 12 well plates and incubated overnight at 37°C and 5% CO2. Cells were stained with Fluo-4 AM (molecular probes, F14201) by using a 3µM stock solution prepared in HBSS with Ca2+ and Mg2+ (HBSS++) and with addition of a final amount of 0.02% Pluronic-F127 (molecular probes, P6867). Cells were incubated with 600ul of the dye/well for 1h at 37°C, in 5% CO2. They were washed 2x with Ca2+ and Mg2+ free HBSS (HBSS--) (Gibco, 14170) before moving to the next step of the protocol (see below).
Cells were trypsinized for three minutes at 37°C and 5% CO2. The cell suspension was then diluted by adding 1ml HBSS-- / well and centrifuged for 3 minutes at 1200 RPM. Cells were resuspended in 1 mL of HBSS++ or HBSS-- before starting the measurement. Base fluorescent signal was recorded for 30 seconds followed by treatment with the various compounds by quickly adding the compounds to the FACS analysis tubes, while acquisition was not interrupted (gaps). […] Samples were measured continuously for the desired time and all measurements were completed within 40 minutes. Unstained cells and stained cells in external buffer without Ca2+ and Mg2+ (HBSS--) were used as negative controls for the treatments. Data were acquired on BD-FACSCalibur and the visualizations were prepared by FlowJo software.

[3] = test system: RIN-5AH cells; experiment: Whole cell patch clamp (current clamp and voltage clamp)
Procedure: For the purpose of investigation of membrane potential changes and membrane depolarization that triggers and activate voltage dependent calcium channels in beta cells, whole cell patch clamp studies were conducted with the compounds of the present invention. RIN-5AH cells were trypsinized and suspended in medium. Cells were transferred into the recording chamber and allowed to settle down before beginning a slow perfusion with the external buffer (138.0 mM; NaCl; 5.6 mM KCl; 11.1 mM Glucose; 1.2 mM; MgCl2; 2.6 mM CaCl2; 10.0 mM HEPES). Cells were sealed and patched by the application of a gentle negative pressure. Holding membrane potential was set up to -70mV for voltage clamp experiments. After patching the cells, at least 10s of base signal was recorded for both voltage clamp and current clamp measurements. External stimulation of cells was done by using Picospritzer II instrument (Parker) with 5psi for 30s with the desired concentrations (50uM and 500uM for compound 12 and 500uM for glibenclamide as control). The total recording time was set to 1-4 minutes.

Row | SMILES | insulin secretion relative to a DMSO control, compared to previously reported quinoline compounds [1] | insulin secretion relative to a DMSO control, compared to previously reported quinoline compounds ([1]; listed as compound 12) | activation at 5 µM ([1]; RIN-5AH cells, 5 µM, treated in medium for 2 hours, read-out: AV_INSULIN (percent increase in insulin secretion over a DMSO control)) | divalent calcium cation influx (Fluo-4 AM fluorescence by FACS) ([2]; Figure 2) | divalent calcium cation influx (Fluo-4 AM fluorescence by FACS) ([2]; Figure 2, listed as compound 12) | time membrane potential is kept in depolarized state / returns to its initial value ([3]; current clamp) | depolarization rate ([3]; current clamp, 500 µM, Figure 3) | shift in membrane potential in current clamp mode (CC) ([3]; from -70mV, after puffs for 30s, Figures 3A and 3B) | onset of increase of inward current ([3]; voltage clamp) | maximal inward current versus GBA treated cells ([3]; voltage clamp, 50 µM compound 12 vs GBA) | difference of maximal inward ion current versus GBA ([3]; voltage clamp, same concentrations of compound 12 and GBA (500 µM)) | duration of effect on inward current compared to GBA ([3]; voltage clamp, Figure 4) | time until inward current flow returned back to baseline ([3]; voltage clamp, Figure 4) | effect on insulin secretion ([1]; negative control quinoline compounds)
1 | COc1cc(Nc2cc(C#N)nc3cc(F)ccc23)c(Cl)cc1Cl [Compound 12, 4-(2,4-dichloro-5-methoxy-anilino)-7-fluoro-quinoline-2-carbonitrile] | more effective | significantly superior activity | 85% | induced divalent calcium cation influx | induces divalent calcium cation influx; also recorded: induced Ca2+ influx | > 240 s | dramatically increased | -20 mV | immediately | more than 5 fold | more than 10 fold | longer lasting effect | 3 min | 
2 | COc1cc(Nc2ccnc3cc(OCc4ccccc4)c(OC)cc23)c(Cl)cc1Cl [Compound 73, 7-benzyloxy-N-(2,4-dichloro-5-methoxy-phenyl)-6-methoxy-quinolin-4-amine] |  |  |  | did not show any increase |  |  |  |  |  |  |  |  |  | didn't show any effect
3 | COc1ccc(Cl)cc1C(=O)NCCc1ccc(S(=O)(=O)NC(=O)NC2CCCCC2)cc1 [GBA, glibenclamide, reference compound] |  |  |  | caused calcium influx, however, with a delayed response |  | 90 s |  |  | small delayed response |  |  |  |  | 
